Assay results: US20060084648A1, “Ethynyl derivatives as factor xa inhibitors” (Merck Patent GmbH, priority 2003, published 2006)

Assays:
[1] = target: T1, TF/FVIIa (Homo sapiens, UniProt P08709); test: TF/factor VIIa inhibition (TF/FVIIa-IC50, pharmacological data); type: biochemical
T1 construct: Coagulation factor VIIa initiates the extrinsic part of the coagulation cascade
Text: The inhibition of factor VIIa by the compounds according to the invention and the measurement of the anticoagulant and antithrombotic activity can be determined by conventional in-vitro or in-vivo methods. A conventional method for the measurement of the inhibition of factor VIIa is described, for example, by H. F. Ronning et al. in Thrombosis Research 1996, 84, 73-81.

[2] = target: FXa (Homo sapiens, UniProt P00742); test: Factor Xa inhibition (FXa-IC50, pharmacological data); type: biochemical
Text: The inhibition of factor Xa by the compounds according to the invention and the measurement of the anticoagulant and antithrombotic activity can be determined by conventional in-vitro or in-vivo methods. A suitable method is described, for example, by J. Hauptmann et al. in Thrombosis and Haemostasis 1990, 63, 220-223.
The inhibition of factor Xa can be measured, for example by the method of T. Hara et al. in Thromb. Haemostas. 1994, 71, 314-319.

T1 sequence (P08709 213-466 limits assumed): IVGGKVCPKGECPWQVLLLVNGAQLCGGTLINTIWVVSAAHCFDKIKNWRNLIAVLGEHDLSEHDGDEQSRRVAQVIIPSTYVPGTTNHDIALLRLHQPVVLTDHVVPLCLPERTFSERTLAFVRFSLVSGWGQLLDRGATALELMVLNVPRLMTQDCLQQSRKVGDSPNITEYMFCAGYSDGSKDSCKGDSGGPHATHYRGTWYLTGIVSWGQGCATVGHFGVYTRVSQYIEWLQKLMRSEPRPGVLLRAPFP
T1 sequence (P08709 61-212 limits assumed): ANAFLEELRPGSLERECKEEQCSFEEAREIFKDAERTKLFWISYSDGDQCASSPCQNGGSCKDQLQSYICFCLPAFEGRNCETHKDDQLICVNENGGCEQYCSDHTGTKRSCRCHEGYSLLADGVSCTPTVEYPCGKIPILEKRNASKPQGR
T1 sequence (P13726 33-295 partner): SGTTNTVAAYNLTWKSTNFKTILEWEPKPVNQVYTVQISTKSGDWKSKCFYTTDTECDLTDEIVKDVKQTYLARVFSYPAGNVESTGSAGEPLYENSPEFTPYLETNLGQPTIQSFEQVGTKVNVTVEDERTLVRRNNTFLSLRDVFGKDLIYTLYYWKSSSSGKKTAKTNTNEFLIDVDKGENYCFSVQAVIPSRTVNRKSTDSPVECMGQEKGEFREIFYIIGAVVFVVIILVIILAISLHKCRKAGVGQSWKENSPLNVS
Chain of FXa (P00742 235-488 limits assumed): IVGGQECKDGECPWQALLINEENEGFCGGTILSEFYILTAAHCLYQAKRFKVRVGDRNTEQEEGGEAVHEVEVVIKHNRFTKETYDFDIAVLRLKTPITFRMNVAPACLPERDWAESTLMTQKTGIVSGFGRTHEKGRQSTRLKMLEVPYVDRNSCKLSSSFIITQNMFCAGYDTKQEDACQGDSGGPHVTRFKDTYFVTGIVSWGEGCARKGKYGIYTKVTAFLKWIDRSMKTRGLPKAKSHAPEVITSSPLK
Chain of FXa (P00742 41-179 limits assumed): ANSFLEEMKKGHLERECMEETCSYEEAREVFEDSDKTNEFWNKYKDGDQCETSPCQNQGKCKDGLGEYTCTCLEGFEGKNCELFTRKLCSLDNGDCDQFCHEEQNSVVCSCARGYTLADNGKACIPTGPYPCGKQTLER

SMILES | IC50 [1] | melting point | IC50 [2]
C#Cc1ccc(NC(=O)N[C@H](CC(C)C)C(=O)Nc2ccc(N3CCOCC3=O)cc2)cc1 [AB, (R)-2-[3-(4-ethynylphenyl)ureido]-N-[4-(3-oxomorpholin-4-yl)phenyl]4-methylvaleramide] | 41 nM |  | 36 nM
C#Cc1ccc(NC(=O)N[C@H](CC(C)C)C(=O)Nc2ccc(N3CCNC3=N)cc2)cc1 [AC, (R)-2-[3-(4-ethynylphenyl)ureido]-N-[4-(2-iminoimidazolidin-1-yl)phenyl]4-methylvaleramide] | 240 nM |  | 46 nM
C#Cc1ccc(NC(=O)N[C@H](COC)C(=O)Nc2ccc(N3CCOCC3=O)cc2)cc1 [Compound 6] | 37 nM |  | 22 nM

Further compounds by falling IC50 [1], results first:

IC50 [1] | melting point | IC50 [2] | SMILES
88 nM | 182 °C | 25 nM | C#Cc1ccc(NC(=O)N[C@H](CCC)C(=O)Nc2ccc(N3CCOCC3=O)cc2)cc1 [AA, (R)-2-[3-(4-ethynylphenyl)ureido]-N-[4-(3-oxomorpholin-4-yl)-phenyl]valeramide]
33 nM |  | 42 nM | C#Cc1ccc(NC(=O)N[C@H](CO)C(=O)Nc2ccc(N3CCOCC3=O)cc2)cc1 [Compound 5]
